Some test systems named below: MDA-MB-435; MDA-MB-231; DU-145; Hs-578T; BT-549; 786-0; RXF 631; LXFL 529; HOP-18.
Common to all, as to experiment: NCI anticancer screen, dose series, 48 h

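Growth conditions: 96-well plates. Treatment: test compound, 48 hours, 5 concentrations. Analysis: linear interpolation between bracketing concentrations; unreached endpoints set to highest concentration. Here, GI50 denotes the concentration required for 50% inhibition of growth.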 Activity calls are given as the source filed them. Cut-off read from the data, not from the text of the source: active = GI50 up to about 1.1 µM and inactive = higher. Some results are limits rather than exact numbers.

As for `O=c1ccc2nc3ccc(O)cc3oc-2c1`, the GI50 in the experiment on MDA-MB-435 was 1.83 µM (inactive); with MDA-MB-231, > 100 µM (inactive); with DU-145, 21 µM (inactive); with Hs-578T it was 6.92 µM (inactive); with BT-549, 7.24 µM (inactive); in the experiment with 786-0, 13.4 µM (inactive).

On to `CCOC(=O)C1=C(Nc2ccccc2)SCC1=O`, for which the GI50 with RXF 631, with LXFL 529 and in the experiment on 786-0 was > 100 µM (inactive) throughout.

Turning to `COC(Cc1cc(C(O)(c2ccc(C(C)(C)C)cc2)c2cc(CC(OC)(c3cc(C(OC)(c4ccc(C(C)(C)C)cc4)c4ccc(C(C)(C)C)cc4)c(C)cc3C)c3cc(C(OC)(c4ccc(C(C)(C)C)cc4)c4ccc(C(C)(C)C)cc4)c(C)cc3C)c(C)cc2C)c(C)cc1C)(c1cc(C(OC)(c2ccc(C(C)(C)C)cc2)c2ccc(C(C)(C)C)cc2)c(C)cc1C)c1cc(C(OC)(c2ccc(C(C)(C)C)cc2)c2ccc(C(C)(C)C)cc2)c(C)cc1C`, the GI50 with MDA-MB-435, in the experiment with MDA-MB-231, in the experiment with DU-145, in the experiment on Hs-578T and in the experiment on BT-549 was > 75 µM (inactive) each time.

Regarding `CC(=O)/N=C1\N/C(=C\c2ccc(Cl)cc2)C(=O)N1/C=C1\C(=O)Oc2ccccc2C1=O`, the GI50 was 51.2 µM (inactive) with MDA-MB-435; > 100 µM (inactive) in the experiment on MDA-MB-231; > 100 µM (inactive) with DU-145; 1.4 µM (inactive) in the experiment on Hs-578T; > 100 µM (inactive) in the experiment with 786-0.

Turning to `O=C(CCCCCCCCCCc1ccccc1)C1=C(O)CC(O)CC1=O` (centres undefined), the GI50 was 56.8 µM (inactive) in the experiment with RXF 631, 53.3 µM (inactive) in the experiment on LXFL 529, > 100 µM (inactive) in the experiment with HOP-18 and 58.1 µM (inactive) in the experiment with 786-0.

For `Cc1cc(C)c(S(=O)(=O)N(CCCCCN)OCCCN)c(C)c1`, the GI50 with MDA-MB-435 is 18.2 µM (inactive); in the experiment with MDA-MB-231, 31.7 µM (inactive); in the experiment on DU-145, 16.7 µM (inactive); in the experiment with Hs-578T, 22 µM (inactive); in the experiment on BT-549, 17.4 µM (inactive).

With `Cc1nc2c(c(=O)[nH]1)S/C(=C(/C#N)c1nc3ccccc3[nH]1)N2c1ccccc1`, in the experiment with LXFL 529, the GI50 is > 100 µM (inactive).

As for `COc1ccc(N2C(Cl)C(=O)C2c2c[nH]c3ccccc23)cc1` (centres undefined), the GI50 in the experiment on LXFL 529 is > 100 µM (inactive).

As to `OC(c1ccc(-c2ccccc2)cc1)(c1ccc(-c2ccccc2)cc1)c1ccc(-c2ccccc2)cc1`, the GI50 was > 100 µM (inactive) in the experiment with MDA-MB-435; 53.7 µM (inactive) in the experiment with MDA-MB-231; > 100 µM (inactive) in the experiment on DU-145; > 100 µM (inactive) with Hs-578T; > 100 µM (inactive) with BT-549; > 100 µM (inactive) in the experiment with 786-0.

Consider `O=C(CCl)NNC1=Nc2ccc(Cl)cc2SC1`, for which, in the experiment with HOP-18, the GI50 was 1.88 µM (inactive).

For the molecule `CSc1nc2c(ncn2C2OCC(O)C(O)C2O)c(=O)[nH]1` (centres undefined), in the experiment on HOP-18, the GI50 is > 100 µM (inactive).

Consider `Cc1ccc([N+](=O)[O-])cc1S(=O)(=O)Nc1ccc(C2=NNC(c3ccccc3O)C2)cc1` (centres undefined), for which the GI50 is 22.1 µM (inactive) in the experiment on MDA-MB-435; 26.7 µM (inactive) in the experiment with MDA-MB-231; 38.7 µM (inactive) in the experiment with DU-145; 43.7 µM (inactive) in the experiment with Hs-578T; 19.7 µM (inactive) in the experiment with BT-549.

On to `CN/N=C(\C(=O)Nc1ccc(C)c(C)c1)C(C(=O)OC)c1nc2ccc([N+](=O)[O-])cc2nc1O` (centres undefined), for which the GI50 in the experiment with LXFL 529 was > 100 µM (inactive).

Consider `Cc1ccc(NP(=O)(Oc2ccccc2)N(CCCl)CCCl)cc1` (centres undefined), for which the GI50 with RXF 631 was 10 µM (inactive); in the experiment with LXFL 529, 99.3 µM (inactive); in the experiment with HOP-18, > 100 µM (inactive).

`O=c1[nH]c(=O)n(C2OC3COC2C3O)cc1F` (centres undefined): the GI50 in the experiment on RXF 631, with LXFL 529, with HOP-18 and with 786-0 was > 100 µM (inactive) each time.

For the molecule `CCCCCn1cc2c3c(cccc31)C1C=C(C)CN(C)[C@@H]1C2.Cc1ccc(C(=O)OC(C(=O)O)C(OC(=O)c2ccc(C)cc2)C(=O)O)cc1` (centres undefined), in the experiment on HOP-18, the GI50 is 2.33 µM (inactive).

In the case of `O=C1OC2(CC1C1(O)C3CC4CC(C3)CC1C4)C1CC3CC(C1)CC2C3` (centres undefined), the GI50 was > 100 µM (inactive) in the experiment with LXFL 529 and 6.61 µM (inactive) in the experiment on HOP-18.

For `O=c1c2c(nc3[nH]ccn13)CCCC2`, the GI50 with MDA-MB-435 was > 10 µM (inactive); in the experiment with MDA-MB-231, > 10 µM (inactive); in the experiment on DU-145 it was > 10 µM (inactive); in the experiment with Hs-578T, 1.23 µM (inactive).

For the molecule `N#C/C(=C\c1ccncc1)c1csc2ccccc12`, in the experiment on HOP-18, the GI50 was 31.1 µM (inactive).

As to `Cc1ccc2[nH]c3c(C)c4ccncc4c(C)c3c2c1`, the values for the GI50 in the experiment with LXFL 529 and in the experiment with HOP-18 were 1.15 µM (inactive) and 0.252 µM (active), respectively.

For `O=c1c(C(c2ccccc2)c2c(O)oc3cc(O)ccc3c2=O)c(O)oc2cc(O)ccc12`, the GI50 with MDA-MB-435, in the experiment on MDA-MB-231, with DU-145, with Hs-578T and in the experiment on BT-549 was > 100 µM (inactive) each time.

For the molecule `COc1cc(C2C(Cl)C(=O)N2NC(=O)c2ccccc2O)ccc1O` (centres undefined), the GI50 is > 100 µM (inactive) in the experiment on LXFL 529 and 34.8 µM (inactive) in the experiment on HOP-18.

In the case of `C/C=C1/C(=O)O[C@]23C=C[C@@H]4C(C(=O)OC)=CO[C@H](O[C@@H]12)[C@@H]43` [PLUMERICIN], the GI50 with HOP-18 is 4.67 µM (inactive).
